Results published in patent publication US11136292B2, “Plant growth regulator compounds” (SYNGENTA PARTICIPATIONS AG, priority 2016, dated 2021).
Like-named read-outs stand apart in the source and are kept apart here.

Test system: NK Falkone 2015 corn seeds
Test: Corn seed germination under cold stress (Example B1)
Format: in vivo
Settings: Zea mays, cold stress 15° C.; for change in vivo at 2 µM: Rate 2 μM; for change in vivo at 10 µM: Rate 10 μM; for change in vivo at 50 µM: Rate 50 μM; for change in vivo at 250 µM: Rate 250 μM; for change in vivo at 0.4 µM: Rate 0.4 μM
Protocol: The effect of compounds of formula (I) on the germination of NK Falkone 2015 corn seeds under cold stress was evaluated as follows. NK Falkone corn seeds were sorted by size using 2 sieves, one excluding very big seeds and the other with round holes of 8 to 9 mm diameter. The seeds retained by the latter sieve were used for the germination test. The corn seeds were placed in 24 well plates (each plate was considered as one experimental unit or replicate). Germination was initiated by the addition of 250 μl of distilled water containing 0.5% DMSO per well as a means for compound solubilization. 8 replicates (ie, 8 plates) were used for each treatment characterization. Plates were sealed using seal foil (Polyolefin Art. Nr. 900320) from HJ-BIOANALYTIK. All plates were placed horizontally on trolleys in a climatic chamber at 15° C. The experiment was laid out in a completely randomized design in climatic chamber with 75% Relative Humidity. Foils were pierced, one hole per well using a syringe after 72 hours for experiments performed at 15° C.
Germination was followed over time by taking photographs at different time points. Image analysis was performed automatically with a macro which was developed using the Image J software. A dynamic analysis of germination was carried out by fitting a logistic curve. Three parameters were calculated from the logistic curve: the T50; the slope and the plateau. All three parameters have a high agronomical relevance and are key requirements to ensure a good early crop-establishment. All the values are expressed as percentages compared to an untreated control. All the three parameters are calculated considering 8 replicates and the kinetic parameters are separately determined for each germination curve. Data in bold indicate germination enhancing statistically significant differences between treated seeds and untreated control (p<0.05). The T50 corresponds to the time needed for half of the seed population to germinate. Higher negative %-values indicate faster germination. The slope indicates how synchronous the germination of the seed population is. Positive values indicate steeper curve; the steeper the curve, the better and more uniform the germination is.

[1] = slope of logistic germination curve, read-out: Slope (% vs control)
[2] = time for half of seeds to germinate, control T50 = 110 hours, read-out: T50 (% vs control)

Compound | change in vivo at 2 µM [1] [%] | change in vivo at 2 µM [2] [%] | change in vivo at 10 µM [1] [%] | change in vivo at 10 µM [2] [%] | change in vivo at 50 µM [1] [%] | change in vivo at 50 µM [2] [%] | change in vivo at 250 µM [1] [%] | change in vivo at 250 µM [2] [%] | change in vivo at 0.4 µM [1] [%] | change in vivo at 0.4 µM [2] [%]
CCOC(=O)/C(=C/OC1C=C(C)C(=O)N1c1cc(C(F)(F)F)cc(C(F)(F)F)c1)C1CCc2ccccc21 (centres unmarked) [Compound I-7] | 63.9 | -3.4 | 69.8 | -3.5 | 78.8 | -6.6 | 11.3 | -1.8 |  | 
CCOC(=O)/C(=C/OC1OC(=O)C(C)=C1C)C1CCCc2ccccc21 (centres unmarked) [Compound I-75] | 4.9 | -3.5 | 5.6 | -2.6 | 58.4 | -6.5 | 44.2 | -5 |  | 
CCOC(=O)/C(=C/OC1C=C(C)C(=O)O1)C1CCc2c1cccc2C(F)(F)F (centres unmarked) [Compound I-70] | 9 | -2.5 | 18.4 | -0.2 | 87.9 | -6.8 | 115 | -8.6 |  | 
COC(=O)/C(=C/OC1OC(=O)C(C)=C1C)C1CCc2ccccc21 (centres unmarked) [Compound I-11] | 11.4 | -1 | 7.4 | 0.2 | 20.1 | -5.1 | 89.6 | -6.9 |  | 
CCOC(=O)/C(=C/OC1OC(=O)C(C)=C1C)C1CCc2cc(OC)c(OC)cc21 (centres unmarked) [Compound I-65] | 1 | -0.9 | 18.8 | -3.1 | 23 | -2.6 | 123 | -12.6 |  | 
CCOC(=O)/C(=C/OC1C=C(C)C(=O)O1)C1Cc2ccccc21 (centres unmarked) [Compound I-76] | -5 | -0.7 | 50.6 | -6.4 | 122 | -8.8 |  |  | -5.6 | -0.5
CCOC(=O)/C(=C/OC1C=C(C)C(=O)O1)C1CCc2cc(OC)c(OC)cc21 (centres unmarked) [Compound I-64] | 1.1 | -1.4 | -1.6 | -3.2 | 27.9 | -4.6 | 83.8 | -10.7 |  | 
COC(=O)/C(=C/OC1C=C(C)C(=O)O1)C1CCc2ccccc21 (centres unmarked) [Compound I-10] | 8.2 | -0.9 | 10.7 | -0.8 | 30.3 | -3.3 | 82.5 | -7.4 |  | 
CCOC(=O)/C(=C/OC1C=C(C)C(=O)O1)C1CCC[C@@]2(C)CCC12 (some centres unmarked) [Compound I-86] | 17.1 | 0.2 | 20.2 | -2.7 | 138 | -9.7 | 150 | -11.2 |  | 
CC1=C(C)C(O/C=C2/C(=O)OC3c4ccccc4CC23)OC1=O (centres unmarked) [Prior art 2] | -1.3 | -1.5 | 1.4 | 1.7 | 9.6 | -1.6 | 15.8 | -2.1 |  | 
CCOC(=O)/C(=C/OC1OC(=O)C(C)=C1C)C1CCc2ccccc21 (centres unmarked) [Compound I-2] | -11.8 | 2.3 | 18.1 | -3 | 47 | -6.2 | 121 | -10.1 |  | 
CCOC(=O)/C(=C/OC1C=C(C)C(=O)O1)C1CCc2c(C)cccc21 (centres unmarked) [Compound I-68] | 23.4 | -1.2 | 3.8 | -0.6 | 44.7 | -5.7 | 113 | -6.8 |  | 
CC1=CC(O/C=C2/C(=O)OC3c4ccccc4CC23)OC1=O (centres unmarked) [Prior art 1] | -0.7 | -1.5 | -11.3 | -0.1 | 6.2 | -1.85 | 36.3 | -3.4 |  | 
CCOC(=O)/C(=C/OC1OC(=O)C(C)=C1C)C1COc2ccccc21 (centres unmarked) [Compound I-95] | -2 | 1.6 | -13.9 | 1.6 | 2.7 | 0.6 | 81.5 | -6.7 |  | 
CCOC(=O)/C(=C/OC1OC(=O)C(C)=C1C)C1CCc2ccc(C(F)(F)F)cc21 (centres unmarked) [Compound I-73] | -1.1 | -3.5 | 14.2 | -6.3 | 57.8 | -7.8 | 54.1 | -9.2 |  | 
CCOC(=O)/C(=C/OC1C=C(C)C(=O)O1)C1CCOc2ccccc21 (centres unmarked) [Compound I-90] | -10 | 3.2 | -0.32 | 2.8 | 4.6 | 0.45 | 83.6 | -6.7 |  | 
CC1=CC(O/C=C2/C(=O)OC3Cc4ccccc4C23)OC1=O (centres unmarked) [Prior art 3] | -0.7 | 1.6 | 2.2 | 0 | 4 | -0.8 | 14.1 | -0.5 |  | 
CNC(=O)/C(=C/OC1C=C(C)C(=O)O1)C1CCc2ccccc21 (centres unmarked) [Compound I-37-1] | 10.8 | -1.3 | -15.7 | -2.5 | 5.2 | -2.6 | 51.7 | -4.6 |  | 
COC(=O)/C(=C/OC1C=C(C)C(=O)O1)c1ccccc1 (centres unmarked) [Prior art 4] | -7.7 | 1.2 | 14.9 | -3.4 | -11.4 | 2.4 | 4.1 | 0.1 |  | 
CNC(=O)/C(=C/OC1C=C(C)C(=O)N1c1cc(C(F)(F)F)cc(C(F)(F)F)c1)C1CCc2ccccc21 (centres unmarked) [Compound I-55-1] | -8.1 | 1.7 | 3.8 | -1.4 | 61.1 | -6.8 | 89.8 | -10.6 |  | 
CCOC(=O)/C(=C/OC1C=C(C)C(=O)O1)C1CCc2ccccc21 (centres unmarked) [Compound I-1] | 8.1 | -0.5 | 10 | 1.6 | 27.9 | -2.8 | 142 | -7.2 |  | 
CCOC(=O)/C(=C/OC1OC(=O)C(C)=C1C)C1CCc2ccsc21 (centres unmarked) [Compound I-83] | 6.5 | -3 | 34.1 | -2.2 | 32.6 | -4.8 | 157 | -8.6 |  | 
